# Assay results as given in patent US10435333B2, “High temperature amine-stabilized DCD and/or alkyl thiophosphoric triamide solvent systems and use in agricultural applications” (RHODIA OPERATIONS, priority 2015, dated 2019).
# Experiments:
# [1] = cited from earlier work
# [2] = degradation of NBPT at high temperature (colour change, sludge/precipitate); assay type: physicochemical
# Description: Another problem is that certain nitrification inhibitors and/or urease inhibitors degrade at high temperatures. […] Often times temperatures in agricultural fields (e.g., corn fields, wheat fields, etc.) reach in excess of 35° C. and sometimes can reach up to 45° C. or higher. For example, at 45° C. […] Thus, it is also desirable to have solvent systems containing nitrification inhibitors and/or urease inhibitors that are stabilized at high temperatures, such as those unitized in hot climates or weather. This invention addresses the addition of stabilizers to prolong the chemical and physical stability of formulated liquid agricultural compositions containing (i) one or more nitrification inhibitors, (ii) one or more urease inhibitors or (iii) a combination of both (i) and (ii). In one embodiment, the urease inhibitor is NBPT.
# [3] = visual physical stability of NBPT/DMSO formulation with 2 wt % amine stabilizer at high temperature (FIG. 1); assay type: physicochemical; settings: 2 wt % amine stabilizer in NBPT/DMSO formulation, greater than 45° C.
# Description: FIG. 1 is a photograph of Several amines or amides were tested to check if they can stabilize NBPT degradation at high temperatures (at greater than 45° C.) in NBPT/DMSO formulation. Each sample was prepared with 2% of amine stabilizer added.
# Referring to FIG. 1, Several amines or amides were tested to check if they can stabilize NBPT degradation at high temperatures (at greater than 45° C.) in NBPT/DMSO formulation. Each sample was prepared with 2 wt % of amine stabilizer added.
compound,measurement,setting,value
"N#CNC(=N)N [Dicyandiamide, 2-cyanoguanidine]",solubility in water,[1],about 41 g/l
"CCCCNP(N)(N)=S [NBPT, N-(n-butyl)-thiophosphoric triamide]",appearance after exposure to high heat,"[2]; 45° C., NBPT formulated in different solvents, days to weeks","changes color in days from colorless to a darker green/brown, followed by sludge/precipitate formation after weeks"
same,degradation at higher temperature,[2]; typically above 45° C.,degrades rapidly
NCCO [monoethanolamine],physical stability by visual observation (appearance),[3],better physical stability (less dark appearance)
